# Test results published in patent US20230173090A1, “COMPOSITIONS AND METHODS FOR MODULATING DOPAMINE RECEPTOR ACTIVITY” (The Regents of the University of California, priority 2020, published 2023).
# Assays:
# D1R [1] = molecular target: T1, D1R (Homo sapiens, UniProt P21728); assay: D1R-mediated cAMP accumulation assay (BRET sensor CAMYEL) in HEK293T cells; assay type: cell-based; details: FIGS. 9A-9H
# T1 construct: expressed in transfected cells; host or cells: HEK293T (A1, A2); HEK293 (A26)
# T1 sequence (P21728 whole entry): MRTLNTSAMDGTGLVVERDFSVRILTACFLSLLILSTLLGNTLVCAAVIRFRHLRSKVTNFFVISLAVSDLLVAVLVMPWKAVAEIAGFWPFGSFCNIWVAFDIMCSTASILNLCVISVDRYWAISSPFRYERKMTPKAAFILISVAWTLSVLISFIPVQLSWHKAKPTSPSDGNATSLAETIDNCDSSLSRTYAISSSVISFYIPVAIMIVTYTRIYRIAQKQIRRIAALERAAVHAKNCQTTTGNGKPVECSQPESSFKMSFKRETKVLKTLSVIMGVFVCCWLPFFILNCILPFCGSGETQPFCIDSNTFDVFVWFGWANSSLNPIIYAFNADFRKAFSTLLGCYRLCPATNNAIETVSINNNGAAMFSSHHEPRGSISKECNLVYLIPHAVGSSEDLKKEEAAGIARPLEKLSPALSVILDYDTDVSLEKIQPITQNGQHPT
# Source text: FIGS. 9A-9H. Functional properties of untethered P-D1ago. (A) Schematic representation of a D1R-mediated G protein-coupled inwardly rectifying potassium (GIRK) channel assay in HEK293T cells. Agonist-induced receptor activation results in the recruitment of a heterotrimeric G protein containing the chimeric Gα subunit (Gαis) followed by the release of Gβγ, which activates GIRK channels and enhances inward-current. […]. (C) Representative traces of the effect of untethered P-D1ago on D1R in the absence of the membrane-anchor (M) according to the GIRK assay. […] (D) Summary of the functional effect of untethered P-D1ago on D1R in the GIRK assay. n = 4-5 cells per condition. (E) Schematic representation of a highly sensitive D1R-mediated cAMP accumulation assay in HEK293T cells. Agonist-induced D1R activation results in Gs/olfrecruitment followed by the binding of its Gα subunit to adenylate cyclase (AC), which enhances the conversion of ATP to cAMP. cAMP binds the bioluminescence resonance energy transfer 1 (BRET′)-based cAMP sensor CAMYEL^87, resulting in a conformational change in its Epac domain that increases the distance and decreases BRET^1 between the donor Renilla luciferase (Rluc) and the acceptor YFP. […]
# D1R [2] = molecular target: T1, D1R; assay: D1R-mediated GIRK channel activation assay in HEK293T cells (whole-cell electrophysiology); assay type: cell-based
# Protocol: All constructs were cloned into mammalian expression vectors. For the receptor mediated-GIRK activation assay, HEK293T cells were seeded onto 18 mm coverslips and transiently transfected overnight with Lipofectamine 2000 and the following constructs: a receptor, a variant of the membrane-anchor (M; 0.7 µg), GIRK1(F137S) (0.7 µg), and tdTomato (0.2 µg). […] D1R, D5R, or opto-D1R were cotransfected with Gαis13 (0.35 µg), D3R with GαoA (0.7 µg), and M1R or mGluR1 with Gαiq5. Transfected cells were used for electrophysiology, imaging, or flow cytometry experiments.
# HEK293T cells were sparsely seeded and maintained in DMEM (Invitrogen) with 10% fetal bovine serum on poly-L-lysine-coated coverslips at 37° C. and 5% CO2. HEK293T cells were voltage clamped in whole-cell configuration 16-48 hours after transfection. […] GluK2 electrophysiology was performed in the presence of 0.3 mg/mL concanavalin A to prevent desensitization. […] Cells were voltage clamped to -60 or -80 mV using an Axopatch 200A (Molecular Devices) amplifier.
# For all experiments, compounds were applied using a gravity-driven perfusion system and illumination was applied to the entire field of view using a Polychrome V monochromator (TILL Photonics) through a 20x objective (maximum 0.05 mW/mm^2 at 370 nm and 0.5 mW/mm^2 at 460 nm or 473 nm) or a DG4 (Sutter) through a 20x objective (maximum 0.06 mW/mm^2 at 370 nm and 0.6 mW/mm^2 at 445 nm). pClamp software was used for both data acquisition and control of illumination.
# The selection criteria for electrophysiological experiments are that a cell (i) expresses the fluorescent protein transfection marker, and (ii) responds to agonist, indicating the presence of either receptor and GIRK or an LGIC. Cells were not excluded unless the recording was of poor quality (e.g., unstable baseline).
# Data were analyzed using GraphPad Prism (GraphPad), Clampfit (Axon instruments), Origin (OriginLab), MATLAB, or ImageJ software. For dose-response curves, data were normalized to vehicle (0%) and DA (100%) and nonlinear regression analysis was performed using the sigmoidal dose-response function in GraphPad Prism. Statistical analyses were performed using GraphPad Prism. All values reported are mean ± S.E.M.
# FIGS. 9A-9H. Functional properties of untethered P-D1ago. (A) Schematic representation of a D1R-mediated G protein-coupled inwardly rectifying potassium (GIRK) channel assay in HEK293T cells. Agonist-induced receptor activation results in the recruitment of a heterotrimeric G protein containing the chimeric Gα subunit (Gαis) followed by the release of Gβγ, which activates GIRK channels and enhances inward-current. […] (E) Schematic representation of a highly sensitive D1R-mediated cAMP accumulation assay in HEK293T cells. Agonist-induced D1R activation results in Gs/olfrecruitment followed by the binding of its Gα subunit to adenylate cyclase (AC), which enhances the conversion of ATP to cAMP. cAMP binds the bioluminescence resonance energy transfer 1 (BRET′)-based cAMP sensor CAMYEL^87, resulting in a conformational change in its Epac domain that increases the distance and decreases BRET^1 between the donor Renilla luciferase (Rluc) and the acceptor YFP. […] Optimization and characterization of the D1R MP
compound,measurement,setting,value
"CCCN(CCc1ccc(N=Nc2ccc(NC(=O)CNC(=O)CCOCCOCCOCCOCCOCCOCCOCCOCCOCCOCCOCCOCCn3cc(CCC(=O)NCc4ccc(COc5nc(N)nc6nc[nH]c56)cc4)nn3)cc2)cc1)C1CCc2c(O)cccc2C1 (stereo not drawn) [P-D1ago, Benzylguanine-azobenzene-PPHT]",agonist profile at D1R in untethered form,D1R [1],low potency full agonist
same,effect of untethered P-D1ago on D1R in the GIRK assay,"D1R [2]; absence of the membrane-anchor (M), 1 µM or 10 µM, trans (blue light) or cis (UV light)","Neither 1 µM or 10 µM P-D1ago, concentrations that fully label the M (FIG. 8D), have any effect on the receptor"
same,D1R activation by P-D1ago tethered to MEAAAK,"D1R [2]; tethered to MEAAAK (SEQ ID NO:16), blue light",only partially activates D1R
same,D1R activation in the presence of sub-saturating DA,"D1R [2]; tethered to MEAAAK, 100 nM and 1 µM DA",further activated D1R
same,effect on the ability of DA to activate D1R,"D1R [2]; tethered to MEAAAK, saturating DA (10 µM)",did not diminish the ability of DA to fully activate D1R
same,photoactivation of D1R by P-D1ago tethered to the M,"D1R [2]; tethered to the M, relative to a saturating concentration of DA",partially photoactivated with blue light (460 nm) and is deactivated with UV light (370 nm)
